Assay results taken from patent US20050074810A1, “Method for non-invasilvely determining the relative levels of two biological substances” (priority 2001, published 2005).

Tests used:
[1] = In vitro reverse iontophoretic extraction of mannitol and sodium (Example 3, first experiment); settings: pig, pH 7.4
Experimental: The anode was placed in the sub-dermal, “donor” chamber, which contained a physiological pH 7.4 buffer (25 mM Tris/TrisHCl+133 mM NaCl) to which the analyte mannitol was added.
In a first experiment, mannitol concentration was 5 mM for the first three hours of experiment and was then increased to 10 mM for a subsequent period of three hours.
(§1) To facilitate the analytical chemistry, the donor solutions were spiked with ^14C-labeled mannitol.
The cathodal (collection) chamber, which contacted the outer surface of the skin contained a 25 mM Tris/TrisHCl buffer at pH 7.4.
(§2) During the first 3-hour period, the entire content of the cathode solution was withdrawn every 60 minutes and the chamber was refilled with fresh buffer.
During the second 3-hour period, the 5 mM mannitol donor solution was replaced with 10 mM mannitol, and the cathodal chamber was then sampled every 30 minutes.

[2] = In vitro reverse iontophoretic extraction of mannitol and sodium (Example 3, second experiment); settings: pig; for Extracted (mannitol/Na^+) flux (×10^3) ratio / Mannitol flux: pH 7.4
Experimental: In a second experiment, performed under identical conditions to the first (see FIG. 11), mannitol concentration was 5 mM for the first three hours of experiment, it was then reduced to 3 mM for a subsequent period of one hour and then increased to 10 mM for a subsequent period of one hour.
as §2
During the second 1-hour period, the 5 mM mannitol donor solution was replaced with 3 mM mannitol, and the cathodal chamber was then sampled every 30 minutes.
During the third 1-hour period, the 3 mM mannitol donor solution was replaced with 10 mM mannitol, and the cathodal chamber was then sampled every 30 minutes.

[3] = In vitro reverse iontophoretic extraction of mannitol and sodium with varied sodium level (Example 4); settings: pig, pH 7.4
Experimental: The anode was placed in the sub-dermal, “donor” chamber, which contained a physiological pH 7.4 buffer (25 mM Tris/TrisHCl+4 mM KCl).
Both the concentration of the analyte of interest and the internal standard were modified during the experiment.
as §1
(§3) The cathodal (collection) chamber, which contacted the outer surface of the skin, contained a 25 mM Tris/TrisHCl buffer at pH 7.4.
as §2
During the final 1-hour period, the donor solution was replaced with 5 mM mannitol/ 133 mM NaCl, and the cathodal chamber was then sampled every 30 minutes.

[4] = In vitro reverse iontophoretic extraction of glucose, mannitol and sodium (Example 6); assay type: in vitro ADME, pig
Experimental: To facilitate the analytical chemistry, the donor solutions were spiked with tritiated glucose and ^14C-labeled mannitol.
as §3
The experimental design was identical to that in FIG. 11, with the exception that both tritiated glucose and ^14C-labeled mannitol were present in the ‘donor’ anode chamber.
During this period, the entire content of the cathode solution was withdrawn every 60 minutes and the chamber was refilled with fresh buffer.

Structure (SMILES): OC[C@@H](O)[C@@H](O)[C@H](O)[C@H](O)CO [Mannitol, mannitol]
- Extracted (mannitol/Na^+) flux (×10^3) ratio ([1]; 60 min, 5 mM): 1.7 ± 0.8 ×10^3
- Mannitol flux ([1]; 60 min, 5 mM): 13.3 ± 7.6 nmol · h^−1 · cm^−2
- Extracted (mannitol/Na^+) flux (×10^3) ratio ([1]; 120 min, 5 mM): 2.2 ± 0.3 ×10^3
- Mannitol flux ([1]; 120 min, 5 mM): 21.0 ± 4.7 nmol · h^−1 · cm^−2
- Extracted (mannitol/Na^+) flux (×10^3) ratio ([1]; 180 min, 5 mM): 2.5 ± 0.3 ×10^3
- Mannitol flux ([1]; 180 min, 5 mM): 25.2 ± 4.3 nmol · h^−1 · cm^−2
- Extracted (mannitol/Na^+) flux (×10^3) ratio ([1]; 210 min, 10 mM): 5.0 ± 0.2 ×10^3
- Mannitol flux ([1]; 210 min, 10 mM): 52.2 ± 4.4 nmol · h^−1 · cm^−2
- Extracted (mannitol/Na^+) flux (×10^3) ratio ([1]; 240 min, 10 mM): 5.1 ± 0.5 ×10^3
- Mannitol flux ([1]; 240 min, 10 mM): 53.2 ± 7.7 nmol · h^−1 · cm^−2
- Extracted (mannitol/Na^+) flux (×10^3) ratio ([1]; 270 min, 10 mM): 5.2 ± 0.5 ×10^3
- Mannitol flux ([1]; 270 min, 10 mM): 54.1 ± 6.8 nmol · h^−1 · cm^−2
- Extracted (mannitol/Na^+) flux (×10^3) ratio ([1]; 300 min, 10 mM): 5.5 ± 0.3 ×10^3
- Mannitol flux ([1]; 300 min, 10 mM): 58.1 ± 4.5 nmol · h^−1 · cm^−2
- Extracted (mannitol/Na^+) flux (×10^3) ratio ([1]; 330 min, 10 mM): 5.7 ± 0.4 ×10^3
- Mannitol flux ([1]; 330 min, 10 mM): 60.9 ± 6.8 nmol · h^−1 · cm^−2
- Extracted (mannitol/Na^+) flux (×10^3) ratio ([1]; 360 min, 10 mM): 6.0 ± 0.3 ×10^3
- Mannitol flux ([1]; 360 min, 10 mM): 63.2 ± 6.2 nmol · h^−1 · cm^−2
- K (Qmann/QNa^+=K.[mann]/[Na^+], slope of FIG. 15b) [2]: 0.07
- Extracted (mannitol/Na^+) flux (×10^3) ratio ([2]; 60 min, 5 mM): 1.52 ± 0.4 ×10^3
- Mannitol flux ([2]; 60 min, 5 mM): 13.5 ± 4.1 nmol · h^−1 · cm^−2
- Extracted (mannitol/Na^+) flux (×10^3) ratio ([2]; 120 min, 5 mM): 2.5 ± 0.3 ×10^3
- Mannitol flux ([2]; 120 min, 5 mM): 25.8 ± 4.8 nmol · h^−1 · cm^−2
- Extracted (mannitol/Na^+) flux (×10^3) ratio ([2]; 180 min, 5 mM): 2.7 ± 0.3 ×10^3
- Mannitol flux ([2]; 180 min, 5 mM): 27.8 ± 4.4 nmol · h^−1 · cm^−2
- Extracted (mannitol/Na^+) flux (×10^3) ratio ([2]; 210 min, 3 mM): 1.5 ± 0.2 ×10^3
- Mannitol flux ([2]; 210 min, 3 mM): 16.6 ± 3.2 nmol · h^−1 · cm^−2
- Extracted (mannitol/Na^+) flux (×10^3) ratio ([2]; 240 min, 3 mM): 1.5 ± 0.5 ×10^3
- Mannitol flux ([2]; 240 min, 3 mM): 14.1 ± 2.8 nmol · h^−1 · cm^−2
- Extracted (mannitol/Na^+) flux (×10^3) ratio ([2]; 270 min, 10 mM): 5.2 ± 0.5 ×10^3
- Mannitol flux ([2]; 270 min, 10 mM): 49.6 ± 8.4 nmol · h^−1 · cm^−2
- Extracted (mannitol/Na^+) flux (×10^3) ratio ([2]; 300 min, 10 mM): 5.2 ± 0.7 ×10^3
- Mannitol flux ([2]; 300 min, 10 mM): 48.1 ± 8.7 nmol · h^−1 · cm^−2
- Extracted (mannitol/Na^+) flux (×10^3) ratio ([3]; 60 min, 5 mM): 1.2 ± 0.2 ×10^3
- Mannitol flux ([3]; 60 min, 5 mM): 9.7 ± 1.5 nmol · h^−1 · cm^−2
- Extracted (mannitol/Na^+) flux (×10^3) ratio ([3]; 120 min, 5 mM): 2.1 ± 0.1 ×10^3
- Mannitol flux ([3]; 120 min, 5 mM): 22.0 ± 1.6 nmol · h^−1 · cm^−2
- Extracted (mannitol/Na^+) flux (×10^3) ratio ([3]; 180 min, 5 mM): 2.6 ± 0.1 ×10^3
- Mannitol flux ([3]; 180 min, 5 mM): 28.8 ± 1.3 nmol · h^−1 · cm^−2
- Extracted (mannitol/Na^+) flux (×10^3) ratio ([3]; 270 min, 3 mM): 1.6 ± 0.1 ×10^3
- Mannitol flux ([3]; 270 min, 3 mM): 15.9 ± 0.7 nmol · h^−1 · cm^−2
- Extracted (mannitol/Na^+) flux (×10^3) ratio ([3]; 300 min, 3 mM): 1.4 ± 0.1 ×10^3
- Mannitol flux ([3]; 300 min, 3 mM): 15.3 ± 0.7 nmol · h^−1 · cm^−2
- Extracted (mannitol/Na^+) flux (×10^3) ratio ([3]; 330 min, 5 mM): 2.7 ± 0.1 ×10^3
- Mannitol flux ([3]; 330 min, 5 mM): 29.0 ± 0.8 nmol · h^−1 · cm^−2
- Extracted (mannitol/Na^+) flux (×10^3) ratio ([3]; 360 min, 5 mM): 2.6 ± 0.1 ×10^3
- Mannitol flux ([3]; 360 min, 5 mM): 29.3 ± 0.6 nmol · h^−1 · cm^−2
- Extracted flux ratio (10^3×) relative to Na^+ ([4]; Experiment A: subdermal glucose 3 mM, mannitol 7 mM, 60 min): 2.01 ± 0.33 10^3×
- Extracted flux ratio (10^3×) relative to Na^+ ([4]; Experiment A: subdermal glucose 3 mM, mannitol 7 mM, 120 min): 3.21 ± 0.21 10^3×
- Extracted flux ratio (10^3×) relative to Na^+ ([4]; Experiment A: subdermal glucose 3 mM, mannitol 7 mM, 180 min): 3.64 ± 0.31 10^3×
- Extracted flux ratio (10^3×) relative to Na^+ ([4]; Experiment A: subdermal glucose 3 mM, mannitol 7 mM, 240 min): 3.98 ± 0.24 10^3×
- Extracted flux ratio (10^3×) relative to Na^+ ([4]; Experiment A: subdermal glucose 3 mM, mannitol 7 mM, 300 min): 4.29 ± 0.40 10^3×
- Extracted flux ratio (10^3×) relative to Na^+ ([4]; Experiment A: subdermal glucose 3 mM, mannitol 7 mM, 360 min): 4.65 ± 0.26 10^3×
- Extracted flux ratio (10^3×) relative to Na^+ ([4]; Experiment B: subdermal glucose 5 mM, mannitol 5 mM, 60 min): 1.29 ± 0.58 10^3×
- Extracted flux ratio (10^3×) relative to Na^+ ([4]; Experiment B: subdermal glucose 5 mM, mannitol 5 mM, 120 min): 2.13 ± 0.47 10^3×
- Extracted flux ratio (10^3×) relative to Na^+ ([4]; Experiment B: subdermal glucose 5 mM, mannitol 5 mM, 180 min): 2.53 ± 0.41 10^3×
- Extracted flux ratio (10^3×) relative to Na^+ ([4]; Experiment B: subdermal glucose 5 mM, mannitol 5 mM, 240 min): 2.73 ± 0.38 10^3×
- Extracted flux ratio (10^3×) relative to Na^+ ([4]; Experiment B: subdermal glucose 5 mM, mannitol 5 mM, 300 min): 2.98 ± 0.41 10^3×
- Extracted flux ratio (10^3×) relative to Na^+ ([4]; Experiment B: subdermal glucose 5 mM, mannitol 5 mM, 360 min): 3.15 ± 0.30 10^3×
- Extracted flux ratio (10^3×) relative to Na^+ ([4]; Experiment C: subdermal glucose 7 mM, mannitol 3 mM, 60 min): 0.86 ± 0.45 10^3×
- Extracted flux ratio (10^3×) relative to Na^+ ([4]; Experiment C: subdermal glucose 7 mM, mannitol 3 mM, 120 min): 1.38 ± 0.46 10^3×
- Extracted flux ratio (10^3×) relative to Na^+ ([4]; Experiment C: subdermal glucose 7 mM, mannitol 3 mM, 180 min): 1.62 ± 0.44 10^3×
- Extracted flux ratio (10^3×) relative to Na^+ ([4]; Experiment C: subdermal glucose 7 mM, mannitol 3 mM, 240 min): 1.71 ± 0.39 10^3×
- Extracted flux ratio (10^3×) relative to Na^+ ([4]; Experiment C: subdermal glucose 7 mM, mannitol 3 mM, 300 min): 1.83 ± 0.40 10^3×
- Extracted flux ratio (10^3×) relative to Na^+ ([4]; Experiment C: subdermal glucose 7 mM, mannitol 3 mM, 360 min): 1.94 ± 0.36 10^3×
- K (analyte/Na^+ extraction ratio vs sub-dermal concentration ratio, slope of FIG. 22b) ([4]; iontophoresis of 6 hours at 0.5 mA/cm^2): 0.078
- K′ (analyte/Na^+ extraction ratio vs analyte sub-dermal concentration, slope of FIG. 22a) ([4]; iontophoresis of 6 hours at 0.5 mA/cm^2, Na^+ fixed 133 mM): 0.586×10^−3
